Results as given in patent US12173018B2, “Penicillin-binding protein inhibitors” (priority 2018, dated 2024).
Converted amounts (≈) assume the structure as drawn. Read-outs that look alike come from different tables or passages of the source.

Assays:
E. coli PBP3 = E. coli PBP3 (Escherichia coli (strain K12), UniProt P0AD68); test: E. coli PBP3 Bocillin-FL fluorescence polarization competition binding assay
In short: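 Purified PBP (1.5 μM final) was combined with test compound (0–1000 μM) and Bocillin-FL (fluorescent penicillin V, 0.1 μM final) in 50 mM Hepes pH 8.0, 300 mM NaCl, 5% glycerol.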

E. coli AG100 = test: Broth microdilution MIC, E. coli AG100 (wild-type parent); assay type: cell-based; settings: Escherichia coli; wild-type parent E. coli AG100, broth microdilution; read-out: MIC E. coli AG100
In short: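 Broth microdilution in cation-supplemented Mueller-Hinton broth, 2-fold serial compound dilutions, inoculum 5×10^5 CFU/mL from 3-5 h log culture.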

K. pneumoniae 848844 = test: microbe, parasite or virus in culture; assay type: cell-based, Klebsiella pneumoniae; settings: Klebsiella pneumoniae; K. pneumoniae 848844 producing SHV-11 and KPC-2; read-out: MIC K. pneumoniae 848844
In short: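 MIC = lowest concentration showing no visible growth after 16-20 h at 37° C. Cation-adjusted MH broth, 2-fold serial dilutions, starting inoculum 5×10^5 CFU/mL, per CLSI methods.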

[1] = tested on: N. gonorrhoeae ATCC 49226; test: Liquid broth MIC, N. gonorrhoeae ATCC 49226; assay type: cell-based; settings: Neisseria gonorrhoeae, ATCC49226; N. gonorrhoeae ATCC 49226, liquid broth; read-out: Minimum Inhibitory Concentration, N. gonorrhoeae ATCC 49226
In short: (§1)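 Visual MIC: lowest concentration well showing no bacterial growth after 40-42 h at 36° C in 5% CO2. Inoculum 5×10^5 CFU/mL from colonies swabbed into GC broth, set by OD600; compounds in 2-fold serial dilution.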

N. gonorrhoeae WHO F = test: Liquid broth MIC, N. gonorrhoeae WHO F; assay type: cell-based; settings: Neisseria gonorrhoeae; N. gonorrhoeae WHO F, liquid broth; read-out: Minimum Inhibitory Concentration, N. gonorrhoeae WHO F
In short: as §1

N. gonorrhoeae FA19 = test: Liquid broth MIC, N. gonorrhoeae FA19; assay type: cell-based; settings: Neisseria gonorrhoeae; N. gonorrhoeae FA19, liquid broth; read-out: Minimum Inhibitory Concentration, N. gonorrhoeae FA19
In short: as §1

[2] = fluorescence polarization competition binding with Bocillin-FL, read-out: E. coli K12 PBP3 Potency

Chain of E. coli PBP3 (P0AD68 whole entry): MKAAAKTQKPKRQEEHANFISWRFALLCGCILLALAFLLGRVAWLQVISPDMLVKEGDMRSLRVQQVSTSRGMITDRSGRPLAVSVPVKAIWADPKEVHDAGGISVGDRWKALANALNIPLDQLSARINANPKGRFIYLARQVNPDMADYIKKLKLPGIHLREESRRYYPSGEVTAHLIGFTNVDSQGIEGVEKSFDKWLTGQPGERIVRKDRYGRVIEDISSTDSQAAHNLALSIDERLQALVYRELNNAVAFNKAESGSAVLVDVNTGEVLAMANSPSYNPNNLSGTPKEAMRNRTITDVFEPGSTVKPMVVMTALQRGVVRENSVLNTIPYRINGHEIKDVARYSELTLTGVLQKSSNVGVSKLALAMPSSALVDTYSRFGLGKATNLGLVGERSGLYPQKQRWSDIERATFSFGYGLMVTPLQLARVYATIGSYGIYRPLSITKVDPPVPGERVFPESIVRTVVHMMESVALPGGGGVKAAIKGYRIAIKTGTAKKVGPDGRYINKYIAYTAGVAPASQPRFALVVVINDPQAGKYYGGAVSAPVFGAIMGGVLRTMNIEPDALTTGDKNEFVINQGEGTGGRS

| SMILES | EC50 (E. coli PBP3) | MIC (E. coli AG100) | MIC (K. pneumoniae 848844) | MIC [1] | MIC (N. gonorrhoeae WHO F) | MIC (N. gonorrhoeae FA19) | EC50 (E. coli PBP3; [2]) |
| --- | --- | --- | --- | --- | --- | --- | --- |
| O=C(O)c1cccc2c1OB(O)[C@@H](NC(=O)C(NC(=O)N1CCN(CCF)C(=O)C1=O)c1ccc(S(=O)(=O)NCCO)cc1)C2 (stereo partly drawn) [Example 213, (3R)-3-(2-(4-(2-fluoroethyl)-2,3-dioxopiperazine-1-carboxamido)-2-(4-(N-(2-hydroxyethyl)sulfamoyl)phenyl)acetamido)-2-hydroxy-3,4-dihydro-2H-benzo[e][1,2]oxaborinine-8-carboxylic acid] | 30 to 500 µM | 32 to 64 µg/mL | > 128 µg/mL | 4 to 8 µg/mL (≈ 6.16 to 12.3 µM) | 0.25 to 0.5 µg/mL (≈ 0.385 to 0.77 µM) | 16 to 32 µg/mL (≈ 24.6 to 49.3 µM) |  |
| CCN1CCN(C(=O)NC(C(=O)N[C@H]2Cc3ccc(Cl)c(C(=O)O)c3OB2O)c2ncc(O)cc2F)C(=O)C1=O (stereo partly drawn) [Example 216, (3R)-7-chloro-3-(2-(4-ethyl-2,3-dioxopiperazine-1-carboxamido)-2-(3-fluoro-5-hydroxypyridin-2-yl)acetamido)-2-hydroxy-3,4-dihydro-2H-benzo[e][1,2]oxaborinine-8-carboxylic acid] |  | 32 to 64 µg/mL | 32 to 64 µg/mL | 1 to 2 µg/mL (≈ 1.73 to 3.46 µM) | < 0.125 µg/mL | 1 to 2 µg/mL (≈ 1.73 to 3.46 µM) | < 30 µM |
| CCN1CCN(C(=O)NC(C(=O)N[C@H]2Cc3ccc(Cl)c(C(=O)O)c3OB2O)c2ccc(O)c(O)c2Cl)C(=O)C1=O (stereo partly drawn) [Example 217, (3R)-7-chloro-3-(2-(2-chloro-3,4-dihydroxyphenyl)-2-(4-ethyl-2,3-dioxopiperazine-1-carboxamido)acetamido)-2-hydroxy-3,4-dihydro-2H-benzo[e][1,2]oxaborinine-8-carboxylic acid] | 30 to 500 µM | 2 to 4 µg/mL | 2 to 4 µg/mL | 16 to 32 µg/mL (≈ 26.3 to 52.5 µM) | 0.25 to 0.5 µg/mL (≈ 0.41 to 0.821 µM) | 4 to 8 µg/mL (≈ 6.57 to 13.1 µM) |  |
| CC[C@H]1CN(CC)C(=O)C(=O)N1C(=O)NC(C(=O)N[C@H]1Cc2cccc(C(=O)O)c2OB1O)c1ncc(O)cc1F (stereo partly drawn) [Example 218, (3R)-3-(2-((S)-4,6-diethyl-2,3-dioxopiperazine-1-carboxamido)-2-(3-fluoro-5-hydroxypyridin-2-yl)acetamido)-2-hydroxy-3,4-dihydro-2H-benzo[e][1,2]oxaborinine-8-carboxylic acid] |  | 32 to 64 µg/mL | > 128 µg/mL | 16 to 32 µg/mL (≈ 28 to 56 µM) | 0.25 to 0.5 µg/mL (≈ 0.438 to 0.875 µM) | 16 to 32 µg/mL (≈ 28 to 56 µM) | < 30 µM |
| C[C@H]1CN(CCO)C(=O)C(=O)N1C(=O)NC(C(=O)N[C@H]1Cc2cccc(C(=O)O)c2OB1O)c1ccc(O)c(O)c1Cl (stereo partly drawn) [Example 224, (3R)-3-(2-(2-chloro-3,4-dihydroxyphenyl)-2-((S)-4-(2-hydroxyethyl)-6-methyl-2,3-dioxopiperazine-1-carboxamido)acetamido)-2-hydroxy-3,4-dihydro-2H-benzo[e][1,2]oxaborinine-8-carboxylic acid] | 30 to 500 µM | 2 to 4 µg/mL | 2 to 4 µg/mL | > 64 µg/mL | 4 to 8 µg/mL (≈ 6.61 to 13.2 µM) | > 64 µg/mL |  |
| NCCN1CCN(C(=O)N[C@@H](C(=O)N[C@H]2Cc3cccc(C(=O)O)c3OB2O)c2ncc(O)cc2F)C(=O)C1=O [Example 225, (R)-3-((R)-2-(4-(2-aminoethyl)-2,3-dioxopiperazine-1-carboxamido)-2-(3-fluoro-5-hydroxypyridin-2-yl)acetamido)-2-hydroxy-3,4-dihydro-2H-benzo[e][1,2]oxaborinine-8-carboxylic acid] |  | 8 to 16 µg/mL | 32 to 64 µg/mL | 16 to 32 µg/mL (≈ 28.7 to 57.3 µM) | 0.25 to 0.5 µg/mL (≈ 0.448 to 0.896 µM) | 4 to 8 µg/mL (≈ 7.16 to 14.3 µM) | < 30 µM |
| NCCN1CCN(C(=O)N[C@@H](C(=O)N[C@H]2Cc3ccc(F)c(C(=O)O)c3OB2O)c2ccc(O)c(O)c2Cl)C(=O)C1=O [Example 227, (R)-3-((R)-2-(4-(2-aminoethyl)-2,3-dioxopiperazine-1-carboxamido)-2-(2-chloro-3,4-dihydroxyphenyl)acetamido)-7-fluoro-2-hydroxy-3,4-dihydro-2H-benzo[e][1,2]oxaborinine-8-carboxylic acid] | 30 to 500 µM | < 0.25 µg/mL | 0.5 to 1 µg/mL | 4 to 8 µg/mL (≈ 6.58 to 13.2 µM) | 1 to 2 µg/mL (≈ 1.65 to 3.29 µM) | 4 to 8 µg/mL (≈ 6.58 to 13.2 µM) |  |
